The values that follow come from patent US20230183219A1, “CONDENSED SUBSTITUTED HYDROPYRROLES AS ANTAGONISTS OF THE MUSCARINIC ACETYLCHOLINE RECEPTOR M4” (Vanderbilt University, priority 2020, published 2023).

Assay [1] deals with haloperidol-induced catalepsy. As to conditions: cited from earlier work.
The target in assay [2] is T1, Human M4 (Homo sapiens, UniProt P08173).
T1 construct: Human or rat M4 cDNA, along with the chimeric G protein Gqi5, were transfected into Chinese hamster ovary (CHO-K1) cells; expressed in transfected cells; host or cells: CHO-K1 (Chinese hamster ovary, ATCC), stably co-expressing Gqi5
T1 sequence (P08173 1-479): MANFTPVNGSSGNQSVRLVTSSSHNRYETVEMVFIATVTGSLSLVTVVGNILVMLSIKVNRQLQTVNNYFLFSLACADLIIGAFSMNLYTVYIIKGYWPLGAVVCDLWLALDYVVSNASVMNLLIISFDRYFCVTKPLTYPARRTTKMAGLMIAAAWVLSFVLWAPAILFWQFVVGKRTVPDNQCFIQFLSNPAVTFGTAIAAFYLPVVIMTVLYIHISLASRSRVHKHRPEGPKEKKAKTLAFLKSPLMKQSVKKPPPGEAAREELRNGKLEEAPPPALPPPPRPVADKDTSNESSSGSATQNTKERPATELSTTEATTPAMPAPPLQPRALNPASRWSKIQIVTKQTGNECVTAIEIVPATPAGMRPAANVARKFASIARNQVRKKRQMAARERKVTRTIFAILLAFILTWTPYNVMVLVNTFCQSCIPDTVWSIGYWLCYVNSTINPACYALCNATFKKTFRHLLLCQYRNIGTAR
In words: mAChR M4 cell-based functional assay (calcium flux, decrease of EC80 acetylcholine response). As to conditions: for remaining activity at 30 µM: % ACh maximum at 30 μM, read-out: Human M4 Emin; for IC50: M4/Gqi5/CHO-K1 cells, decrease of response to EC80 acetylcholine. In a few lines: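 CHO-K1 cells stably co-expressing M4 and chimeric Gqi5, loaded with Fluo-4 AM; calcium flux read on FDSS. Compound added at 2 s, EC20 acetylcholine at 143 s, EC80 acetylcholine at 268 s. IC50 from concentration-dependent decrease of the EC80 response, four-parameter logistic fit; 10-point 1:3 titrations.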
A general note: A change in cytosolic calcium serves as a functional read-out for many receptors and channels.

As for `CN1[C@@H]2C[C@@H](OC(=O)[C@H](CO)c3ccccc3)C[C@H]1[C@@H]1O[C@@H]12` [scopolamine], the “reduction of catalepsy induced by haloperidol” value in assay [1] (M4KO mice) was “ineffective”. Also, the “reversal of catalepsy induced by haloperidol” value in assay [1] (WT mice) was “completely reversed”.
As a reminder, the IC50 is the concentration that inhibits the measured activity by half. For `[2H]C([2H])(C1CCOCC1)N1C[C@H]2C[C@H](Nc3nnc(-c4cc(C)ccc4C)cc3C(F)(F)F)C[C@H]2C1` [Example 98, (3aR,5s,6aS)-N-(6-(2,5-dimethylphenyl)-4-(trifluoromethyl)pyridazin-3-yl)-2-((tetrahydro-2H-pyran-4-yl)methyl-d2)octahydro-cyclopenta[c]pyrrol-5-amine], in assay [2], the remaining activity at 30 µM was found to be 3% and the IC50 was 0.0727 µM.
`Fc1ccc(F)c(-c2cc(C(F)(F)F)c(N[C@H]3C[C@@H]4CN(C[C@H]5COCCO5)C[C@@H]4C3)nn2)c1` [Example 70, (3aR,5s,6aS)-2-(((S)-1,4-dioxan-2-yl)methyl)-N-(6-(2,5-difluorophenyl)-4-(trifluoromethyl)pyridazin-3-yl)octahydro-cyclopenta[c]pyrrol-5-amine]: in assay [2], the remaining activity at 30 µM came to 3% and the IC50 was found to be 0.142 µM.
For the compound `Cc1ccc(F)cc1-c1cc(C(F)(F)F)c(N[C@H]2C[C@@H]3CN(CC4CCCOC4)C[C@@H]3C2)nn1` (single isomer, unassigned) [Example 120], in assay [2], the remaining activity at 30 µM stood at 3% and the IC50 was 0.0103 µM.
For `Cc1ccc(C)c(-c2cc(C(F)(F)F)c(N[C@H]3C[C@@H]4CN(C[C@@H]5COCCO5)C[C@@H]4C3)nn2)c1` [Example 71, (3aR,5s,6aS)-2-(((R)-1,4-dioxan-2-yl)methyl)-N-(6-(2,5-dimethylphenyl)-4-(trifluoromethyl)pyridazin-3-yl)octahydro-cyclopenta[c]pyrrol-5-amine] the same measures were 3% and 0.183 µM.
Regarding `Fc1cc(F)c(-c2cc(C(F)(F)F)c(N[C@H]3C[C@@H]4CN(CC5CCOCC5)C[C@@H]4C3)nn2)cc1F` [Example 42, (3aR,5s,6aS)-2-((tetrahydro-2H-pyran-4-yl)methyl)-N-(4-(trifluoromethyl)-6-(2,4,5-trifluorophenyl)pyridazin-3-yl)octahydro-cyclopenta[c]pyrrol-5-amine], in assay [2], the remaining activity at 30 µM was 3% and the IC50 worked out at 0.237 µM.
`FC(F)(F)c1cc(-c2cccnc2)nnc1N[C@H]1C[C@@H]2CN(CC3CCOCC3)C[C@@H]2C1` [Example 68, (3aR,5s,6aS)-N-(6-(pyridin-3-yl)-4-(trifluoro-methyl)pyridazin-3-yl)-2-((tetrahydro-2H-pyran-4-yl)methyl)octahydro-cyclopenta[c]pyrrol-5-amine]: in assay [2], the remaining activity at 30 µM was 3% and the IC50 came to 0.161 µM.
For `[2H]C([2H])(C1CCOCC1)N1C[C@H]2C[C@H](Nc3cc(C(F)(F)F)c(-c4cc(F)ccc4Cl)nn3)C[C@H]2C1` [Example 129, (3aR,5s,6aS)-N-(6-(2-chloro-5-fluorophenyl)-5-(trifluoro-methyl)pyridazin-3-yl)-2-((tetrahydro-2H-pyran-4-yl)methyl-d2)octahydrocyclopenta[c]pyrrol-5-amine] the same measures were 2% and 0.0023 µM.
With `Cn1ccc2cc(-c3cc(C(F)(F)F)c(N[C@H]4C[C@@H]5CN(CC6CCOCC6)C[C@@H]5C4)nn3)ccc21` [Example 87, (3aR,5s,6aS)-N-(6-(1-methyl-1H-indol-5-yl)-4-(trifluoromethyl)pyridazin-3-yl)-2-((tetrahydro-2H-pyran-4-yl)methyl)octahydro-cyclopenta[c]pyrrol-5-amine], in assay [2], the remaining activity at 30 µM was 4% and the IC50 was determined as 0.0896 µM.
`Cc1ccc(C)c(-c2cc(C(F)(F)F)c(N[C@H]3C[C@@H]4CN(CC5CCOCC5)C[C@@H]4C3)nn2)c1` [Example 44, (3aR,5s,6aS)-N-(6-(2,5-dimethylphenyl)-4-(trifluoromethyl)pyridazin-3-yl)-2-((tetrahydro-2H-pyran-4-yl)methyl)octahydro-cyclopenta[c]pyrrol-5-amine]: in assay [2], the remaining activity at 30 µM came to 2% and the half-maximal inhibitory concentration (IC50) was found to be 0.0528 µM.
For `Fc1ccc(C(F)(F)F)cc1-c1cc(C(F)(F)F)c(N[C@H]2C[C@@H]3CN(CC4CCOCC4)C[C@@H]3C2)nn1` [Example 89, (3aR,5s,6aS)-N-(6-(2-fluoro-5-(trifluoromethyl)phenyl)-4-(trifluoromethyl)pyridazin-3-yl)-2-((tetrahydro-2H-pyran-4-yl)methyl)octahydro-cyclopenta[c]pyrrol-5-amine], in assay [2], the remaining activity at 30 µM was 4% and the IC50 is 0.634 µM.
For `Cc1ccc(F)cc1-c1cc(C(F)(F)F)c(N[C@H]2C[C@@H]3CN(C[C@@H]4COCCO4)C[C@@H]3C2)nn1` [Example 21, (3aR,5s,6aS)-2-(((R)-1,4-dioxan-2-yl)methyl)-N-(6-(5-fluoro-2-methylphenyl)-4-(trifluoromethyl)pyridazin-3-yl)octahydro-cyclopenta[c]pyrrol-5-amine] the same measures were 3% and 0.0312 µM.
Take `Cn1ccc2ccc(-c3cc(C(F)(F)F)c(N[C@H]4C[C@@H]5CN(CC6CCOCC6)C[C@@H]5C4)nn3)cc21` [Example 90, (3aR,5s,6aS)-N-(6-(1-methyl-1H-indol-6-yl)-4-(trifluoromethyl)pyridazin-3-yl)-2-((tetrahydro-2H-pyran-4-yl)methyl)octahydro-cyclopenta[c]pyrrol-5-amine]: in assay [2], the remaining activity at 30 µM was 4% and the IC50 came to 0.637 µM.
For `[2H]C([2H])(C1CCOCC1)N1C[C@H]2C[C@H](Nc3nnc(-c4ccccc4OC)cc3C(F)(F)F)C[C@H]2C1` [Example 107, (3aR,5s,6aS)-N-(6-(2-methoxyphenyl)-4-(trifluoromethyl)pyridazin-3-yl)-2-((tetrahydro-2H-pyran-4-yl)methyl-d2)octahydro-cyclopenta[c]pyrrol-5-amine], in assay [2], the remaining activity at 30 µM worked out at 3% and the IC50 came out at 0.0264 µM.
For the compound `FC(F)(F)c1cc(N2CCOCC2)nnc1N[C@H]1C[C@@H]2CN(CC3CCOCC3)C[C@@H]2C1` [Example 143, (3aR,5s,6aS)-N-(6-morpholino-4-(trifluoromethyl)pyridazin-3-yl)-2-((tetrahydro-2H-pyran-4-yl)methyl)octahydro-cyclopenta[c]pyrrol-5-amine], in assay [2], the remaining activity at 30 µM worked out at 2% and the IC50 amounted to 0.0351 µM.
Consider `[2H]C([2H])([C@@H]1CCOC1)N1C[C@H]2C[C@H](Nc3nnc(-c4cc(C)ccc4C)cc3C(F)(F)F)C[C@H]2C1` [Example 115, (3aR,5s,6aS)-N-(6-(2,5-dimethylphenyl)-4-(trifluoro-methyl)pyridazin-3-yl)-2-(((S)-tetrahydrofuran-3-yl)methyl-d2)octahydro-cyclopenta[c]pyrrol-5-amine], for which, in assay [2], the remaining activity at 30 µM is 3% and the IC50 was 0.176 µM.
For `C[C@H]1CCCN(c2cc(C(F)(F)F)c(N[C@H]3C[C@@H]4CN(CC5CCOCC5)C[C@@H]4C3)nn2)C1` [Example 137, (3aR,5s,6aS)-N-(6-((S)-3-methylpiperidin-1-yl)-4-(trifluoro-methyl)pyridazin-3-yl)-2-((tetrahydro-2H-pyran-4-yl)methyl)octahydro-cyclopenta[c]pyrrol-5-amine] the same measures were 2% and 0.0143 µM.
For the compound `[2H]C([2H])(C1CCOCC1)N1C[C@H]2C[C@H](Nc3nnc(-c4ccc(C)cc4C)cc3C(F)(F)F)C[C@H]2C1` [Example 126, (3aR,5s,6aS)-N-(6-(2,4-dimethyl-phenyl)-4-(trifluoro-methyl)pyridazin-3-yl)-2-((tetrahydro-2H-pyran-4-yl)methyl-d2)octahydro-cyclopenta[c]pyrrol-5-amine], in assay [2], the remaining activity at 30 µM came to 3% and the half-inhibitory concentration (IC50) was 0.0942 µM.
For the compound `Cc1ccc(F)cc1-c1cc(C(F)(F)F)c(N[C@H]2C[C@@H]3CN(CC4COCCO4)C[C@@H]3C2)nn1` (stereo partly drawn) [Example 19, (3aR,5s,6aS)-2-((1,4-dioxan-2-yl)methyl)-N-(6-(5-fluoro-2-methylphenyl)-4-(trifluoromethyl)pyridazin-3-yl)octahydro-cyclopenta[c]pyrrol-5-amine], in assay [2], the remaining activity at 30 µM was 2% and the half-maximal inhibitory concentration (IC50) was 0.0045 µM.
